Measurements as given in patent publication EP0119737A2, “Pharmaceutical composition and its production” (Takeda Chemical Industries, Ltd., priority 1983, dated 1984).
Values after ≈ are worked out from the molar mass of the structure shown.

What was measured:
[1] = test system: Aspergillus niger ATCC 9642; test: Minimal inhibitory concentration (MIC) of preservative solutions, serial dilution in culture medium, read with the naked eye; format: cell-based; settings: ATCC9642, 120 h, A. niger ATCC 9642, 10^5 cfu/ml, 25°C, 5 days
Experimental: (§1) Thus, two culture media are prepared by adding 0% and 5% of a-cyclodextrin, respectively, to a 1/15 M phosphate buffer (pH 6.5) containing 2% of Polypeptone (Daigo Nutritive Chemicals Ltd., Japan). The preservative is added to each medium and the resulting solution is diluted serially with each of the respective media to give solutions differing in preservative concentration. The test organisms are added to these solutions to a final concentration of 10^5 cfu/ml (cfu: colony forming unit).

[2] = test system: Escherichia coli IFO 3044; test: as above; format: cell-based; settings: IFO3044, 72 h, E. coli IFO 3044, 10^5 cfu/ml, 35°C, 3 days
Experimental: as §1

[3] = pH 6.5, Culture medium + 5% α-cyclodextrin
[4] = pH 6.5, Culture medium without addition of cyclodextrin

SMILES	MIC [1, 3]	MIC [1, 4]	MIC [2, 3]	MIC [2, 4]
CCCCOC(=O)c1ccc(O)cc1 [Butylparaben]	4000 µg/mL	125 µg/mL (≈ 644 µM)	4000 µg/mL	125 µg/mL (≈ 644 µM)
CCOC(=O)c1ccc(O)cc1 [Ethylparaben]	4000 µg/mL	250 µg/mL (≈ 1500 µM)	4000 µg/mL	500 µg/mL (≈ 3010 µM)
COC(=O)c1ccc(O)cc1 [Methylparaben]	4000 µg/mL	500 µg/mL (≈ 3290 µM)	4000 µg/mL	500 µg/mL (≈ 3290 µM)
CCCOC(=O)c1ccc(O)cc1 [Propylparaben]	4000 µg/mL	125 µg/mL (≈ 694 µM)	4000 µg/mL	250 µg/mL (≈ 1390 µM)
Cc1cc(O)ccc1Cl [p-Chloro-m-cresol, p-chloro-m-cresol]	200 µg/mL	100 µg/mL (≈ 701 µM)	200 µg/mL	200 µg/mL (≈ 1400 µM)
Cc1cc(O)cc(C)c1Cl [p-Chloro-m-xylenol, p-chloro-m-xylenol]	75 µg/mL	50 µg/mL (≈ 319 µM)	150 µg/mL	100 µg/mL (≈ 639 µM)
Oc1ccc(Cl)cc1 [p-Chlorophenol, p-chlorophenol]	400 µg/mL	200 µg/mL (≈ 1560 µM)	400 µg/mL	200 µg/mL (≈ 1560 µM)
